Data reported in patent US6903130B1, “Pyrrolidineacetamide derivative alone or in combination for treatment of cns disorders” (UCB S.A., priority 1999, dated 2005).
Read-outs that look alike come from different tables or passages of the source.

Key:
sound-sensitive mice [1] = experiment: Audiogenic seizure testing, protection against clonic convulsions; format: in vivo, mouse; conditions: for ED50: Mus musculus, ip, read-out: ED50, protection against audiogenic-induced clonic convulsions
Source text: The purpose of this study was to evaluate the effect of levetiracetam on the anticonvulsivant potency of valproate in sound sensitive mice, a genetic animal model with reflex seizures. In this model of generalized epilepsy, seizures can be evoked without electrical or chemical stimulation and seizure types, at least in part, are similar in their clinical phenomenology to seizures occurring in man (Löscher W. & Schmidt D., Epilepsy Res. (1988), 2, 145-181; Buchhalter J. R., Epilepsia (1993), 34, S31-S41).
The experimental design consisted of one group receiving vehicles, another group receiving levetiracetam alone at a dose of 5.5 mg/kg and the other groups receiving different doses of valproate alone or in combination with levetiracetam. Levetiracetam alone was also tested. […] Levetiracetam and sodium valproate were both dissolved in 0.9% saline solution, to give solutions of pH 6.4 and 6.2, respectively.
The proportion of mice protected against clonic convulsions was calculated and used as the end point for the anticonvulsant activity.
Methods used for calculation and statistical analysis are described hereafter: • A response to drug treatment was expressed as the proportion of animals protected against induced convulsions, or showing an impairment of the rotarod performance, at each individual dose. […] From these formulations, the dose of valproate, considered as expected value, that should be associated to a constant dose of levetiracetam in order to afford 50% of protection, may be calculated as: [formula] for the additive model [formula] for the independent model.
These calculated doses (Vm50 expected) may then be compared to the observed doses of valproate which, in combination with a constant dose of levetiracetam, induce an effect corresponding to 50% protection (Vm50 observed). […]

sound-sensitive mice [2] = experiment: Rotarod test in sound-sensitive mice
[3] = levetiracetam 5.5 mg/kg i.p. alone, inferred from dose-response relation

| SMILES | ED50 (sound-sensitive mice [1]; compound alone, i.p., LOGIT-LOG DOSE regression) | Impairment in the performance within the rotarod test (sound-sensitive mice [2]; valproate 122 mg/kg + saline (treatment protecting 50% of the mice)) | ED50 (sound-sensitive mice [1]) | animals protected against audiogenic-induced clonic convulsions (sound-sensitive mice [1]; [3]) | ED50 (TD50), impairment of rotarod performance (sound-sensitive mice [2]; compound alone, i.p., sound-sensitive mice) | animals showing an impairment of the rotarod performance (sound-sensitive mice [2]; [3]) |
| --- | --- | --- | --- | --- | --- | --- |
| CCCC(CCC)C(=O)[O-].[Na+] [Valproate, sodium valproate] | 122 mg/kg | 30% |  |  |  |  |
| CC[C@@H](C(N)=O)N1CCCC1=O [Levetiracetam, (S)-(−)α-ethyl-2-oxo-1-pyrrolidineacetamide] |  |  | 10 mg/kg | 20% | 360.7 mg/kg | 4% |
